Assays:
[1] = molecular target: PKM2 (Homo sapiens (Human), UniProt P14618); assay: Recombinant PKM2 enzyme activity in the presence of FBP (LDH-coupled NADH consumption); format: biochemical; conditions: for IC50: recombinant pyruvate kinase, enzyme activity at various concentrations of inhibitor, read-out: IC50 in vitro (PKM2); for PKM2 inhibition of enzyme activity relative to the absence of compound: screening concentration estimated at 50 μM
Procedure: (§1) Recombinant PKM1 and PKM2 were expressed in E. coli and purified using an Ni-NTA column according to standard protocols. PKM2 ([…]) was mixed with the following components: 0.6 mM ADP, 0.5 mM phosphoenolpyruvate, 200 μM NADH, 1-4 units of lactate dehydrogenase, 50 μM FBP, 1 mM DTT, 0.02% Brij 35, 5% glycerol, and the test molecule with a final DMSO concentration of 5%. A control reaction lacked the test molecule. The test molecules used in this example were selected from a library containing over 100,000 compounds.
Primary screening was performed using PKM2 in the presence of FBP. […] Activity was measured by monitoring the concentration of NADH. Pyruvate, produced by the enzymatic activity of pyruvate kinase, is converted into lactate by lactate dehydrogenase, which requires the consumption of NADH (NADH→NAD^+). Thus, the activity of PKM2 was indirectly measured by monitoring the consumption of NADH through fluorescence assays. Additionally, the activity of the PKM2 enzyme was directly monitored by measuring the production of ATP, as ATP is produced when phosphoenolpyruvate is converted to pyruvate by PKM2.
(§2) For in vitro studies, recombinant pyruvate kinase was incubated with the compound indicated (Table 2) and the activity of the enzyme assessed, as described in Example 4. To determine the IC50, enzyme activity was determined at various concentrations of inhibitor. The percentages shown in Table 2 reflect the inhibition of enzyme activity relative to the absence of compound when the enzyme is incubated with 50 μM of the compound indicated. For in vivo studies, human lung cancer cell lines were incubated with increasing concentrations of the compound indicated and the concentration required to kill >90% of the cells is reported.

[2] = molecular target: PKM1 (Homo sapiens (Human), UniProt P14618); assay: Recombinant PKM1 enzyme activity (same screening method); format: biochemical; conditions: screening concentration estimated at 50 μM
Procedure: as §1
This same screening method was then used to retest candidate molecules for the inhibition of PKM1 to determine which candidate compounds are active against PKM2, but not PKM1.
as §2

[3] = test system: H1299 and A549 human lung cancer cells; assay: Killing of human lung cancer cell lines by increasing concentrations of compound; format: cell-based; conditions: concentration required to kill >90% of the cells, read-out: IC50 in vivo
Procedure: as §2
Human lung cancer cells were exposed to increasing concentrations of candidate compounds A2 and D1. The toxicity of the compounds was measured by determining the percentage of surviving cells. Cells were mock-treated with DMSO as a control. […] depicts the toxicity of compounds A2 (FIG. 8a) and D1 (FIG. 8b) in H1299 cells compared to mock treatment with DMSO.

[4] = test system: FL5.12 cells; assay: Toxicity in FL5.12 cells with and without growth factor (IL-3); format: cell-based, mouse; conditions: twenty hours of treatment, presence and absence of IL-3
Procedure: Mouse pre-lymphocyte cells (FL5.12 cells) were treated with candidate compounds A2 (FIG. 9a) and D1 (FIG. 9b) for twenty hours in the presence and absence of growth factor (IL-3).

Sequence of PKM1 (P14618 other isoform, or with tags, fused parts or gaps, species assumed): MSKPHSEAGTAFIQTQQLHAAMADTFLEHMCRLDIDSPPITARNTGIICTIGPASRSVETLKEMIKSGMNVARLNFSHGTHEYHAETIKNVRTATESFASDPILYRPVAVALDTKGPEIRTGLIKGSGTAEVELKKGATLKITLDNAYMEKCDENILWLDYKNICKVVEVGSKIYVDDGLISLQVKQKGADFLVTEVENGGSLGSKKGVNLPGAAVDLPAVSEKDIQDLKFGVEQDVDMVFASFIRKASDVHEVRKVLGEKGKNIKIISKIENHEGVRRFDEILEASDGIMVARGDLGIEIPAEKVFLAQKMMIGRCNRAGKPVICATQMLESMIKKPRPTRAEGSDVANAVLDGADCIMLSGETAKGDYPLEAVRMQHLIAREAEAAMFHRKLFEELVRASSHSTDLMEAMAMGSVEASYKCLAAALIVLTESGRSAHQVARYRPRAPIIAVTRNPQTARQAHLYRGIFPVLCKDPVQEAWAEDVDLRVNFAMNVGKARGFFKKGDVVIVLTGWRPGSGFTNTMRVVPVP
Sequence of PKM2 (P14618 whole entry, species assumed): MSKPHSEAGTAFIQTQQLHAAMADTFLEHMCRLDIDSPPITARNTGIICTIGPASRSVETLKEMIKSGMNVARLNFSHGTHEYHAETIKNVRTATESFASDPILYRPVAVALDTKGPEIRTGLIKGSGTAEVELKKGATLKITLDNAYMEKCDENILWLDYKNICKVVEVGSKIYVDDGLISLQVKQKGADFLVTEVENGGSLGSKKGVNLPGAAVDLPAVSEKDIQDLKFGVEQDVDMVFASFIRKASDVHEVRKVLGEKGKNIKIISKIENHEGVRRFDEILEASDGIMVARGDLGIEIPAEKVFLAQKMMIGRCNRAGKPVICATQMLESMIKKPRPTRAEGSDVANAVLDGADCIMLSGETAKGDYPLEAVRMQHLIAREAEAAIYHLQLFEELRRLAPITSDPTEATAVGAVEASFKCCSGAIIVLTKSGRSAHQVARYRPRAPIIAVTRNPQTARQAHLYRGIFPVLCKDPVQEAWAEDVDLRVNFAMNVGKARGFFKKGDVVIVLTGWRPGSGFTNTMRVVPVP

| IC50 [1] [µM] | PKM2 inhibition of enzyme activity relative to the absence of compound [1] [%] | PKM1 inhibition of enzyme activity relative to the absence of compound [2] [%] | Structure (SMILES) | Concentration killing >90% of cells [3] [µM] | Toxicity in FL5.12 cells, effect of growth factor withdrawal [4] |
| --- | --- | --- | --- | --- | --- |
| 20 | 70 | 15 | O=C(O)CN1C(=O)/C(=C/c2ccc(OC(=O)c3ccccc3I)cc2)SC1=S [Compound D1] | ~250 | Growth factor withdrawal increases the toxicity |
| ~10 | 85 | 0 | CCCCCN1/C(=C/C=C/c2n(CCCCC)c3cc(Cl)c(Cl)cc3[n+]2CCCC)N(CCCC)c2cc(Cl)c(Cl)cc21 [Compound B1] |  |  |
| ~70 |  |  | C=C(NC(C)C)c1cc2c(=O)oc3ccc(C)cc3c2s1 [Compound G1] | > 500 |  |
| ~90 | 50 | 15 | CC(=O)CSc1ccc(-n2c(C)ccc2C)cc1 [Compound A1] | > 100 |  |
| 90 |  |  | O=C1C2C3C=CC(C3)C2C(=O)N1c1nc[nH]n1 (stereo not shown) [Compound H1] | > 500 |  |

— US8877791B2, “Inhibitors of pyruvate kinase and methods of treating disease” (Beth Israel Deaconess Medical Center, Inc., priority 2006, dated 2014)
